These results are taken from ChEMBL document CHEMBL1201862, “PubChem BioAssay data set” (2004).

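A five-concentration, 48-hour dose response in 96-well plates underlies each endpoint, interpolated linearly between surrounding concentrations. Abbreviation: GI50, concentration required for 50% inhibition of growth.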 Activity calls are given as the source filed them. Cut-off read from the data, not from the text of the source: active = GI50 up to about 1.1 µM and inactive = higher. Positions of bridges follow the written chain, without caps; N, C: chain ends. Non-standard residues stand in square brackets, D forms with d. Residues, ends and D or L forms follow the SMILES beside them. Aib = CC(C)(N)C(=O)O; βAla = NCCC(=O)O Bounds are passed on as bounds.

Some test systems named below: 786-0; ACHN; CAKI-1; DU-145; HOP-62; HT-29; KM12; MOLT-4; Malme-3M; NCI-H23; NCI-H460; NCI/ADR-RES; OVCAR-3; OVCAR-5; PC-3; SF-295; T47D; TK-10; UACC-257; HCC 2998.
Holding throughout (experiment): NCI anticancer screen, dose series, 48 h

Turning to `CC1(C)NC(=O)C(NC(=O)C(N)CC(=O)O)CCCCNC(=O)CCNC1=O` (centres undefined) (H-DK[Aib][βAla]; lactam 2-C; configuration not given here), the GI50 with 786-0, in the test with ACHN, with CAKI-1, with DU-145, in the test on HOP-62 and in the test with HT-29 was > 100 µM (inactive) in each case. Further, the GI50 in the test on KM12, with MOLT-4, in the test with Malme-3M, in the test with NCI-H23, in the test with NCI-H460 and with NCI/ADR-RES was > 100 µM (inactive) in each case. For the same compound, the GI50 in the test on OVCAR-3, with OVCAR-5, with PC-3, in the test on SF-295, with T47D and in the test with TK-10 was > 100 µM (inactive) in each case. Also, in the test on UACC-257, the GI50 is > 100 µM (inactive).
Take `Cc1csc2nc3c(cnn3C)c(=S)n12`: the GI50 was > 100 µM (inactive) in the test with 786-0; 44.5 µM (inactive) in the test on ACHN; 34.3 µM (inactive) in the test on CAKI-1; > 100 µM (inactive) with HCC 2998; 50 µM (inactive) in the test with HOP-62; 84.5 µM (inactive) in the test with HT-29. Besides, the GI50 in the test on KM12, with MOLT-4, in the test with Malme-3M, in the test on NCI-H23, in the test with NCI-H460 and with NCI/ADR-RES was > 100 µM (inactive) each time. Further, the GI50 is > 100 µM (inactive) in the test with OVCAR-3; > 100 µM (inactive) with OVCAR-5; > 100 µM (inactive) in the test on PC-3; > 100 µM (inactive) in the test on SF-295; > 10 µM (inactive) with T47D; 80.5 µM (inactive) in the test on TK-10. In the test on UACC-257, the GI50 was > 100 µM (inactive).
As for `COC(=O)c1ccccc1C1CN=NC12Cc1cccc(C)c1C2=O` (centres undefined), the GI50 in the test with 786-0 was 90.4 µM (inactive); in the test on ACHN, 35.3 µM (inactive); with CAKI-1, 46.1 µM (inactive); with DU-145 it was > 100 µM (inactive); with HCC 2998, > 100 µM (inactive); in the test on HOP-62 it was 45.2 µM (inactive). Also, the GI50 with HT-29 is 57.7 µM (inactive); in the test on KM12, 26.8 µM (inactive); in the test with MOLT-4, 32.8 µM (inactive); in the test with Malme-3M, 43.7 µM (inactive); in the test on NCI-H23, 51.9 µM (inactive); with NCI-H460, 88.1 µM (inactive). In addition, the GI50 in the test on NCI/ADR-RES was 9.84 µM (inactive); in the test on OVCAR-3, 22.1 µM (inactive); with OVCAR-5, > 100 µM (inactive); in the test with SF-295 it was 34.4 µM (inactive); in the test on T47D it was 16.6 µM (inactive); with TK-10, 65.9 µM (inactive). Besides, the GI50 in the test on UACC-257 is 37.3 µM (inactive).
Consider `CCOC(=O)C1=C(C(=O)c2ccc(C)cc2)C(c2cccc([N+](=O)[O-])c2)C(C(=O)c2ccc(C)cc2)=C(C(=O)OCC)N1`, for which the GI50 in the test on 786-0 is 16.2 µM (inactive); in the test on ACHN, 15.1 µM (inactive); in the test on CAKI-1 it was 19.5 µM (inactive); in the test with DU-145, 16.8 µM (inactive); in the test with HOP-62, 19.5 µM (inactive); in the test on HT-29, 13 µM (inactive). Moreover, the GI50 in the test with KM12 is 12.8 µM (inactive); in the test on MOLT-4, 28.6 µM (inactive); in the test with Malme-3M, 15.1 µM (inactive); in the test with NCI-H23, 15.8 µM (inactive); with NCI-H460, 31.6 µM (inactive); in the test with NCI/ADR-RES, 18.2 µM (inactive). Also, the GI50 in the test with OVCAR-3 is 15.5 µM (inactive); in the test with OVCAR-5, 17.2 µM (inactive); with PC-3, 23.2 µM (inactive); with SF-295 it was 16.1 µM (inactive); in the test with T47D, 2.41 µM (inactive); with TK-10, 17.2 µM (inactive). In the test on UACC-257, the GI50 was 21.4 µM (inactive).
`O=C(NCCCNCCNC(=O)c1cc(-c2ccccc2)nc2ccccc12)c1cc(-c2ccccc2)nc2ccccc12`: the GI50 in the test on 786-0 is 1.79 µM (inactive); in the test with ACHN, 1.79 µM (inactive); in the test on CAKI-1 it was 2.26 µM (inactive); in the test with HCC 2998, 1.7 µM (inactive); in the test on HOP-62 it was 1.69 µM (inactive); in the test on HT-29, 1.52 µM (inactive). The GI50 was 1.91 µM (inactive) in the test with KM12; 2.09 µM (inactive) in the test with MOLT-4; 1.88 µM (inactive) in the test with Malme-3M; 1.83 µM (inactive) in the test on NCI-H460; 2.05 µM (inactive) with NCI/ADR-RES; 1.97 µM (inactive) in the test on OVCAR-3. The GI50 in the test on PC-3 is 1.68 µM (inactive); in the test on SF-295, 1.73 µM (inactive); in the test on T47D it was 1.91 µM (inactive); in the test with TK-10 it was 1.66 µM (inactive); in the test on UACC-257, 1.67 µM (inactive).
On to `CC1=NN2CCC(=O)N=C2S1`, for which the GI50 in the test with 786-0, with ACHN, with CAKI-1, in the test with DU-145, in the test on HOP-62 and in the test with HT-29 was > 100 µM (inactive) throughout. Besides, the GI50 with KM12, in the test on MOLT-4, in the test with Malme-3M, with NCI-H23, in the test on NCI-H460 and in the test on NCI/ADR-RES was > 100 µM (inactive) each time. Moreover, the GI50 in the test on OVCAR-3, with OVCAR-5, in the test on PC-3, in the test with SF-295, in the test with T47D and with TK-10 was > 100 µM (inactive) throughout. Further, the GI50 in the test with UACC-257 was > 100 µM (inactive).
Consider `COc1ccc2nc(-c3ccc(O)cc3)cc(O)c2c1`, for which the GI50 with 786-0 is 2.09 µM (inactive); with ACHN, 3.82 µM (inactive); in the test with DU-145 it was 15.7 µM (inactive); in the test with HCC 2998, 0.9 µM (active); with HOP-62, 1.42 µM (inactive); in the test on HT-29, 2.26 µM (inactive). The GI50 is 1.03 µM (active) in the test with KM12; 1.41 µM (inactive) in the test with MOLT-4; 0.459 µM (active) with Malme-3M; 1.16 µM (inactive) in the test with NCI-H23; 1.95 µM (inactive) in the test with NCI-H460; 0.887 µM (active) in the test on OVCAR-3. Also, the GI50 is > 25.9 µM (inactive) in the test on OVCAR-5; 4.78 µM (inactive) in the test on PC-3; 2.1 µM (inactive) with SF-295; 4.73 µM (inactive) in the test on T47D; 8.97 µM (inactive) in the test with TK-10; 1.87 µM (inactive) in the test with UACC-257.
As for `CCOC(=O)Cn1c(C(F)(F)F)nc2nc(Cl)c(Cl)nc21`, the GI50 in the test with 786-0 is > 76.9 µM (inactive); in the test on ACHN it was > 45.6 µM (inactive); in the test with CAKI-1, 3.12 µM (inactive); in the test with DU-145, 3.8 µM (inactive); with HOP-62 it was 19.5 µM (inactive); in the test on HT-29, 51.9 µM (inactive). For the same compound, the GI50 was 15.3 µM (inactive) with KM12; 26.6 µM (inactive) in the test with MOLT-4; 38.4 µM (inactive) with Malme-3M; 27 µM (inactive) in the test with NCI-H23; 27.9 µM (inactive) in the test on NCI-H460; 50.2 µM (inactive) in the test on NCI/ADR-RES. Also, the GI50 with OVCAR-3 is 16.3 µM (inactive); in the test with OVCAR-5, > 100 µM (inactive); in the test on PC-3, 32.2 µM (inactive); with SF-295 it was 29 µM (inactive); in the test with T47D, 33.3 µM (inactive); with TK-10 it was 61.4 µM (inactive). For the same compound, the GI50 in the test with UACC-257 was 19.6 µM (inactive).
Consider `CCC1([N+](=O)[O-])CC2C=CC1C2` (centres undefined), for which the GI50 with 786-0, in the test on ACHN, in the test on CAKI-1, in the test on DU-145, in the test with HOP-62 and with HT-29 was > 100 µM (inactive) throughout. In addition, the GI50 in the test with KM12, with MOLT-4, with Malme-3M, in the test with NCI-H23, in the test on NCI-H460 and with NCI/ADR-RES was > 100 µM (inactive) in each case. For the same compound, the GI50 with OVCAR-3, in the test on OVCAR-5, with PC-3, in the test with SF-295, with T47D and with TK-10 was > 100 µM (inactive) each time. Moreover, in the test with UACC-257, the GI50 is > 100 µM (inactive).
For the compound `Cc1ccc(S(=O)(=O)N2CCSCCSCCSCCN(S(=O)(=O)c3ccc(C)cc3)CC2)cc1`, the GI50 with 786-0, in the test with ACHN, in the test on DU-145, in the test on HCC 2998, in the test on HOP-62 and in the test with HT-29 was > 100 µM (inactive) throughout. Besides, the GI50 in the test on KM12, with MOLT-4, with NCI-H23, in the test with NCI-H460, with NCI/ADR-RES and with OVCAR-3 was > 100 µM (inactive) each time. Also, the GI50 in the test on OVCAR-5, in the test on SF-295, in the test with T47D, with TK-10 and with UACC-257 was > 100 µM (inactive) each time.
As for `CCOC(=O)CCC(NC(=O)c1ccc(Nc2nc3ccccc3nc2C(=O)OCC)cc1)C(=O)OCC` (centres undefined), the GI50 with 786-0 is 1.85 µM (inactive); with ACHN, 3.58 µM (inactive); in the test with CAKI-1, 5.96 µM (inactive); with HCC 2998, > 76 µM (inactive); in the test with HOP-62, 3.89 µM (inactive); in the test on HT-29, 4.67 µM (inactive). Further, the GI50 in the test on KM12 was 3.78 µM (inactive); in the test with MOLT-4, > 100 µM (inactive); in the test on Malme-3M it was 6.67 µM (inactive); with NCI-H23 it was 7.52 µM (inactive); with NCI-H460 it was > 72.1 µM (inactive); in the test with NCI/ADR-RES, 5.46 µM (inactive). Also, the GI50 was 2.04 µM (inactive) with OVCAR-3; > 28.6 µM (inactive) in the test on OVCAR-5; 16.9 µM (inactive) in the test on PC-3; 7.71 µM (inactive) in the test on SF-295; 2.18 µM (inactive) in the test with T47D; 2.92 µM (inactive) in the test with TK-10. Besides, the GI50 with UACC-257 is 18.9 µM (inactive).
